Results from patent US9447044B2, “Thioaryl derivatives as GPR120 agonists” (LG LIFE SCIENCES LTD., priority 2012, dated 2016).

Biological target: T1, hGPR120 (Homo sapiens, UniProt Q5NUL3)
T1 construct: expressed in transfected cells; host or cells: CHO-K1
T1 sequence (Q5NUL3 1-361): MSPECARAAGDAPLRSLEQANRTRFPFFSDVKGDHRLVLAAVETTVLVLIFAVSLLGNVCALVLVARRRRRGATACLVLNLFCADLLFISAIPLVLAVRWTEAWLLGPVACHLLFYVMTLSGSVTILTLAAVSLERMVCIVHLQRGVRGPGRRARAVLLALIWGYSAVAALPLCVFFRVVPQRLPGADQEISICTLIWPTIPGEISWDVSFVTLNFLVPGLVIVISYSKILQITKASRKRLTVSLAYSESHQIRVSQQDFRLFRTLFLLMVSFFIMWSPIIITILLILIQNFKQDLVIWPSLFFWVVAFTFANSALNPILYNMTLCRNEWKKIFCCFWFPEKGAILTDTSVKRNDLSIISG
Assay: Measurement of activity of GPR120 agonist (cell-based assay), calcium fluorescence
Settings: CHO-K1 cells expressing Ga16 and hGPR120, Calcium 5 dye fluorescence
Description: CHO-K1 cells expressing Ga16 and hGPR120 were dispensed into each well of a 96-well plate (3×10^4 cells/100 μl/well) and then incubated in 5% CO2, 37° C. incubator for 18 hours. Each well was treated with 100 μl of Calcium 5 dye (Molecular Devices) solution including 2% DMSO and then incubated in 5% CO2, 37° C. incubator for 1 hour. Serially diluted GPR120 agonists were prepared to a final concentration of 0.5% DMSO in a 96-well plate. Each well was treated with 50 μl of the agonist compounds using Plexstation II, and then fluorescence was measured at Ex 485 nm, Em 525 nm.
Fluorescence increased by the serially diluted GPR120 agonists is calculated as a relative percent (%) value based on the fluorescence represented by the treatment of 0.1% DMSO only. […] The calculation of measurement was carried out by using statistical software (Prizm).
Activity is denoted based on the following criteria: A=>20 μM, B=[…], C=2˜0.2 μM, D=<0.2 μM

Row | Structure (SMILES) | EC50 (activity class) [nM] | EC50 (numeric value) [nM]
1 | O=C(O)CC1COc2c1cc(F)c(OCc1cccnc1SC1CCCC1)c2F (stereo not shown) [Example 123, [6-(2-cyclopentylsulfanyl-pyridin-3-ylmethoxy)-5,7-difluoro-2,3-dihydro-benzofuran-3-yl]-acetic acid] | < 200 | –
2 | CCC(C)Sc1cccc(COc2c(F)cc(CC(C)C(=O)O)cc2F)n1 (stereo not shown) [Example 48, 3-[4-(6-sec-butylsulfanyl-pyridin-2-ylmethoxy)-3,5-difluoro-phenyl]-2-methyl-propionic acid] | 200 to 2000 | –
3 | O=C(O)CCc1ccc(OCc2cccc(SC3CCC3)n2)c(Cl)c1 [Example 159, 3-[3-chloro-4-(6-cyclobutylsulfanyl-pyridin-2-ylmethoxy)-phenyl]-propionic acid] | < 200 | –
4 | CC(Cc1cc(F)c(OCc2cccnc2SCC2CC2)c(F)c1)C(=O)O (stereo not shown) [Example 50, 3-[4-(2-cyclopropylmethylsulfanyl-pyridin-3-ylmethoxy)-3,5-difluoro-phenyl]-2-methyl-propionic acid] | < 200 | –
5 | CC(C)Sc1cccc(COc2c(F)cc(CC(C)C(=O)O)cc2F)n1 (stereo not shown) [Example 49, 3-[3,5-difluoro-4-(6-isopropylsulfanyl-pyridin-2-ylmethoxy)-phenyl]-2-methyl-propionic acid] | < 200 | –
6 | CC(C)Sc1cccc(COc2ccc(CCC(=O)O)cc2F)n1 [Example 149, 3-[3-fluoro-4-(6-isopropylsulfanyl-pyridin-2-ylmethoxy)-phenyl]-propionic acid] | < 200 | –
7 | Cc1ccc(COc2ccc(CCC(=O)O)cc2)c(SC(C)C)n1 [Example 185] | – | 441
8 | O=C(O)CCc1ccc(OCc2cccnc2SCC2CC2)cc1F [Example 178] | 200 to 2000 | –
9 | CC(C)Sc1cccc(COc2c(F)cc(CCC(=O)O)cc2F)n1 [Example 33, 3-[3,5-difluoro-4-(6-isopropylsulfanyl-pyridin-2-ylmethoxy)-phenyl]-propionic acid] | < 200 | –
10 | CCCCSc1ncccc1COc1ccc(CC(C)C(=O)O)cc1F (stereo not shown) [Example 61, 3-[4-(2-butylsulfanyl-pyridin-3-ylmethoxy)-3-fluoro-phenyl]-2-methyl-propionic acid] | < 200 | –
11 | O=C(O)C1CC1c1ccc(OCc2cccnc2SC2CCCC2)c(F)c1 (single isomer, unassigned) [Example 164, 2-[4-(2-cyclopentylsulfanyl-pyridin-3-ylmethoxy)-3-fluoro-phenyl]-cyclopropane carboxylic acid] | < 200 | –
12 | CCCSc1ncccc1COc1ccc(C2CC2CC(=O)O)cc1F (stereo not shown) [Example 121, {2-[3-fluoro-4-(2-propylsulfanyl-pyridin-3-ylmethoxy)-phenyl]-cyclopropyl}-acetic acid] | < 200 | –
13 | CC(Cc1ccc(OCc2cccc(SC3CCC3)n2)c(Cl)c1)C(=O)O (stereo not shown) [Example 96, 3-[3-chloro-4-(6-cyclobutylsulfanyl-pyridin-2-ylmethoxy)-phenyl]-2-methyl-propionic acid] | < 200 | –
14 | CC(C)Sc1ncccc1COc1ccc2c(c1)OCC2CC(=O)O (stereo not shown) [Example 59, [6-(2-isopropylsulfanyl-pyridin-3-ylmethoxy)-2,3-dihydro-benzofuran-3-yl]-acetic acid] | 200 to 2000 | –
15 | CC(C)Sc1ncccc1COc1c(F)cc(C2CC2C(=O)O)cc1F (stereo not shown) [Example 138, 2-[3,5-difluoro-4-(2-isopropylsulfanyl-pyridin-3-ylmethoxy)-phenyl]-cyclopropane carboxylic acid] | – | 56
16 | CC(C)CSc1ncccc1COc1c(F)cc(CCC(=O)O)cc1F [Example 11, 3-[3,5-difluoro-4-(2-isobutylsulfanyl-pyridin-3-ylmethoxy)-phenyl]-propionic acid] | < 200 | –
17 | O=C(O)CCc1ccc(OCc2cccc(SC3CCC3)n2)cc1 [Example 181] | < 200 | –
18 | CCC(C)Sc1cccc(COc2ccc(CC(C)C(=O)O)cc2F)n1 (stereo not shown) [Example 53, 3-[4-(6-sec-butylsulfanyl-pyridin-2-ylmethoxy)-3-fluoro-phenyl]-2-methyl-propionic acid] | 200 to 2000 | –
19 | O=C(O)C1CC1c1ccc(OCc2cccc(SC3CCC3)n2)c(Cl)c1 (stereo not shown) [Example 103, 2-[3-chloro-4-(6-cyclobutylsulfanyl-pyridin-2-ylmethoxy)-phenyl]-cyclopropane carboxylic acid] | < 200 | –
20 | Cc1c(CCC(=O)O)ccc(OCc2cccnc2SC(C)C)c1C [Example 79, 3-[4-(2-isopropylsulfanyl-pyridin-3-ylmethoxy)-2,3-dimethyl-phenyl]-propionic acid] | – | 33

Row | Structure (SMILES) | EC50 (activity class) [nM] | EC50 (numeric value) [nM]
21 | CC(Cc1ccc(OCc2cccnc2SCC2CC2)c(Cl)c1)C(=O)O (stereo not shown) [Example 91, 3-[3-chloro-4-(2-cyclopropylmethylsulfanyl-pyridin-3-ylmethoxy)-phenyl]-2-methyl-propionic acid] | < 200 | –
22 | Cc1ccc(COc2ccc(CCC(=O)O)cc2)c(SC2CCCC2)n1 [Example 184] | 200 to 2000 | –
23 | O=C(O)CCc1ccc(OCc2cccc(SC3CCCC3)n2)cc1F [Example 177] | 200 to 2000 | –
24 | O=C(O)CCc1ccc(OCc2cccnc2SC2CCC2)cc1F [Example 175] | 200 to 2000 | –
25 | CCCSc1ncccc1COc1ccc(C2CC2C(=O)O)cc1F (single isomer, unassigned) [Example 163, 2-[3-fluoro-4-(2-propylsulfanyl-pyridin-3-ylmethoxy)-phenyl]-cyclopropane carboxylic acid] | < 200 | –
26 | Cc1c(OCc2cccnc2SC2CCCC2)ccc2c(CC(=O)O)coc12 [Example 118, [6-(2-cyclopentylsulfanyl-pyridin-3-ylmethoxy)-7-methyl-benzofuran-3-yl]-acetic acid] | – | 135
27 | CC(C)Sc1ncccc1COc1ccc(CCC(=O)O)cc1Cl [Example 77, 3-[3-chloro-4-(2-isopropylsulfanyl-pyridin-3-ylmethoxy)-phenyl]-propionic acid] | < 200 | –
28 | CCCCSc1ncccc1COc1c(F)cc(C2CC2C(=O)O)cc1F (stereo not shown) [Example 66, 2-[4-(2-butylsulfanyl-pyridin-3-ylmethoxy)-3,5-difluoro-phenyl]-cyclopropane carboxylic acid] | < 200 | –
29 | O=C(O)CCc1cc(F)c(OCc2cccc(SC3CCCC3)n2)c(F)c1 [Example 30] | < 200 | –
30 | O=C(O)C1CC1c1ccc(OCc2cccnc2SC2CCC2)c(Cl)c1 (single isomer, unassigned) [Example 124, 2-[3-chloro-4-(2-cyclobutylsulfanyl-pyridin-3-ylmethoxy)-phenyl]-cyclopropane carboxylic acid] | 200 to 2000 | –
31 | CCCSc1ncccc1COc1c(F)cc(CC(C)C(=O)O)cc1F (stereo not shown) [Example 51, 3-[3,5-difluoro-4-(2-propylsulfanyl-pyridin-3-ylmethoxy)-phenyl]-2-methyl-propionic acid] | < 200 | –
32 | O=C(O)C1CC1c1cc(F)c(OCc2cccc(SC3CCCC3)n2)c(F)c1 (stereo not shown) [Example 35, 2-[4-(6-cyclopentylsulfanyl-pyridin-2-ylmethoxy)-3,5-difluoro-phenyl]-cyclopropane carboxylic acid] | < 200 | –
33 | Cc1c(OCc2cccc(SC(C)C)n2)ccc(C2CC2C(=O)O)c1C (stereo not shown) [Example 114, 2-[4-(6-isopropylsulfanyl-pyridin-2-ylmethoxy)-2,3-dimethyl-phenyl]-cyclopropane carboxylic acid] | 2000 to 20000 | –
34 | O=C(O)C1CC1c1ccc(OCc2cccnc2SC2CCCC2)c(F)c1 (stereo not shown) [Example 87, 2-[4-(2-cyclopentylsulfanyl-pyridin-3-ylmethoxy)-3-fluoro-phenyl]-cyclopropane carboxylic acid] | – | 64000
35 | COc1cc(CCC(=O)O)ccc1OCc1cccnc1SC1CCCC1 [Example 58, 3-[4-(2-cyclopentylsulfanyl-pyridin-3-ylmethoxy)-3-methoxy-phenyl]-propionic acid] | < 200 | –
36 | O=C(O)C1CC1c1ccc(OCc2cccc(SCC3CC3)n2)c(F)c1 (stereo not shown) [Example 170, 2-[4-(6-cyclopropylmethylsulfanyl-pyridin-2-ylmethoxy)-3-fluoro-phenyl]-cyclopropane carboxylic acid] | < 200 | –
37 | CC(C)Sc1ncccc1COc1ccc(C2CC2C(=O)O)c(Cl)c1 (stereo not shown) [Example 89, 2-[2-chloro-4-(2-isopropylsulfanyl-pyridin-3-ylmethoxy)-phenyl]-cyclopropane carboxylic acid] | 200 to 2000 | –
38 | CC(C)Sc1ncccc1COc1c(F)cc(C2CC2C(=O)O)cc1F (stereo not shown) [Example 65, 2-[3,5-difluoro-4-(2-isopropylsulfanyl-pyridin-3-ylmethoxy)-phenyl]-cyclopropane carboxylic acid] | < 200 | –
39 | CCCCSc1ncccc1COc1c(F)cc(CCC(=O)O)cc1F [Example 26, 3-[4-(2-butylsulfanyl-pyridin-3-ylmethoxy)-3,5-difluoro-phenyl]-propionic acid] | < 200 | –
40 | CC(C)Sc1ncccc1COc1ccc(CC(C)C(=O)O)cc1 (stereo not shown) [Example 4, 3-[4-(2-isopropylsulfanyl-pyridin-3-ylmethoxy)-phenyl]-2-methyl-propionic acid] | 200 to 2000 | –
